Source: patent US8952024B2, “Herbicidal pyrimidone derivatives” (E I du Pont de Nemours and Company, priority 2009, dated 2015)

Assays:
Assay in all cases: Test D pre-/postemergence plant response
Assay type in all cases: in vivo
[1] = test system: Russian thistle (Salsola kali)
In short: (§1)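 Seeds in loam–sand blend treated preemergence, and plants at 1- to 4-leaf stage (2–18 cm) treated postemergence, with compounds in non-phytotoxic solvent with surfactant. Greenhouse for 14–21 days, then visual rating against controls, 0 (no effect) to 100 (complete control).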

[2] = test system: Surinam grass (Brachiaria decumbens)
In short: as §1

[3] = test system: barnyardgrass (Echinochloa crus-galli)
In short: as §1

[4] = test system: bermudagrass (Cynodon dactylon)
In short: as §1

[5] = test system: bluegrass (annual bluegrass, Poa annua)
In short: as §1

[6] = test system: chickweed (common chickweed, Stellaria media); conditions: Postemergence
In short: as §1

[7] = test system: dallisgrass (Paspalum dilatatum)
In short: as §1

[8] = test system: dayflower (Virginia (VA) dayflower, Commelina virginica)
In short: as §1

[9] = test system: goosegrass (Eleusine indica)
In short: as §1

[10] = test system: green foxtail (Setaria viridis)
In short: as §1

[11] = test system: itchgrass (Rottboellia cochinchinensis)
In short: as §1

[12] = test system: johnsongrass (Sorghum halepense)
In short: as §1

kochia (Kochia scoparia) = test system: kochia (Kochia scoparia)
In short: as §1

[13] = test system: mallow (common mallow, Malva sylvestris)
In short: as §1

[14] = test system: purslane (common purslane, Portulaca oleracea)
In short: as §1

[15] = test system: signalgrass (broadleaf signalgrass, Brachiaria platyphylla)
In short: as §1

[16] = test system: sowthistle (common sowthistle, Sonchus oleraceous); conditions: Postemergence
In short: as §1

[17] = test system: spanishneedles (Bidens bipinnata)
In short: as §1

[18] = Postemergence, 31 g ai/ha, scale 0 to 100
[19] = Postemergence, 62 g ai/ha, scale 0 to 100 (0 no effect, 100 complete control)
[20] = Postemergence, 125 g ai/ha, scale 0 to 100 (0 no effect, 100 complete control)
[21] = Postemergence, 250 g ai/ha, scale 0 to 100 (0 no effect, 100 complete control)
[22] = Preemergence, 125 g ai/ha, scale 0 to 100
[23] = Preemergence, 250 g ai/ha, scale 0 to 100
[24] = Preemergence, 62 g ai/ha, scale 0 to 100
[25] = 62 g ai/ha, scale 0 to 100 (0 no effect, 100 complete control)
[26] = 125 g ai/ha, scale 0 to 100 (0 no effect, 100 complete control)
[27] = 250 g ai/ha, scale 0 to 100 (0 no effect, 100 complete control)

COCCn1c(-c2cc(F)cc(F)c2)ncc(C(=O)C2=C(O)C3CCC(C3)C2=O)c1=O (centres unmarked) [Compound 243, 2-(3,5-difluorophenyl)-5-[(2-hydroxy-4-oxobicyclo[3.2.1]oct-2-en-3-yl)carbonyl]-3-(2-methoxyethyl)-4(3H)-pyrimidinone]
Plant response rating, Russian Thistle [1, 18]: 20 | Plant response rating, Russian Thistle [1, 19]: 30 | Plant response rating, Russian Thistle [1, 20]: 30 | Plant response rating, Russian Thistle [1, 21]: 60 | Plant response rating, Russian Thistle [1, 22]: 100 | Plant response rating, Russian Thistle [1, 23]: 100 | Plant response rating, Surinam Grass [2, 18]: 75 | Plant response rating, Surinam Grass [2, 19]: 75 | Plant response rating, Surinam Grass [2, 20]: 75 | Plant response rating, Surinam Grass [2, 21]: 85 | Plant response rating, Surinam Grass [2, 22]: 100 | Plant response rating, Surinam Grass [2, 23]: 100 | Plant response rating, Barnyardgrass [3, 18]: 75 | Plant response rating, Barnyardgrass [3, 19]: 80 | Plant response rating, Barnyardgrass [3, 20]: 80 | Plant response rating, Barnyardgrass [3, 21]: 90 | Plant response rating, Barnyardgrass [3, 24]: 100 | Plant response rating, Barnyardgrass [3, 22]: 100 | Plant response rating, Barnyardgrass [3, 23]: 100 | Plant response rating, Bermudagrass [4, 18]: 75 | Plant response rating, Bermudagrass [4, 19]: 85 | Plant response rating, Bermudagrass [4, 20]: 95 | Plant response rating, Bermudagrass [4, 21]: 95 | Plant response rating, Bermudagrass [4, 24]: 100 | Plant response rating, Bermudagrass [4, 22]: 100 | Plant response rating, Bermudagrass [4, 23]: 100 | Plant response rating, Bluegrass [5, 18]: 5 | Plant response rating, Bluegrass [5, 19]: 5 | Plant response rating, Bluegrass [5, 20]: 35 | Plant response rating, Bluegrass [5, 21]: 35 | Plant response rating, Bluegrass [5, 24]: 40 | Plant response rating, Bluegrass [5, 22]: 95 | Plant response rating, Bluegrass [5, 23]: 100 | Plant response rating, Chickweed ([6]; 31 g ai/ha, scale 0 to 100): 35 | Plant response rating, Chickweed [6, 25]: 50 | Plant response rating, Chickweed [6, 26]: 60 | Plant response rating, Chickweed [6, 27]: 70 | Plant response rating, Dallisgrass [7, 18]: 75 | Plant response rating, Dallisgrass [7, 19]: 80 | Plant response rating, Dallisgrass [7, 20]: 90 | Plant response rating, Dallisgrass [7, 21]: 90 | Plant response rating, Dallisgrass [7, 24]: 100 | Plant response rating, Dallisgrass [7, 22]: 100 | Plant response rating, Dallisgrass [7, 23]: 100 | Plant response rating, Dayflower, VA [8, 18]: 35 | Plant response rating, Dayflower, VA [8, 19]: 65 | Plant response rating, Dayflower, VA [8, 20]: 70 | Plant response rating, Dayflower, VA [8, 21]: 75 | Plant response rating, Dayflower, VA [8, 24]: 100 | Plant response rating, Dayflower, VA [8, 22]: 100 | Plant response rating, Dayflower, VA [8, 23]: 100 | Plant response rating, Goosegrass [9, 18]: 65 | Plant response rating, Goosegrass [9, 19]: 70 | Plant response rating, Goosegrass [9, 20]: 70 | Plant response rating, Goosegrass [9, 21]: 75 | Plant response rating, Goosegrass [9, 24]: 100 | Plant response rating, Goosegrass [9, 22]: 100 | Plant response rating, Goosegrass [9, 23]: 100 | Plant response rating, Foxtail, Green [10, 18]: 80 | Plant response rating, Foxtail, Green [10, 19]: 85 | Plant response rating, Foxtail, Green [10, 20]: 90 | Plant response rating, Foxtail, Green [10, 21]: 98 | Plant response rating, Foxtail, Green [10, 24]: 35 | Plant response rating, Foxtail, Green [10, 22]: 100 | Plant response rating, Foxtail, Green [10, 23]: 100 | Plant response rating, Itchgrass [11, 18]: 75 | Plant response rating, Itchgrass [11, 19]: 75 | Plant response rating, Itchgrass [11, 20]: 75 | Plant response rating, Itchgrass [11, 21]: 85 | Plant response rating, Itchgrass [11, 24]: 25 | Plant response rating, Itchgrass [11, 22]: 50 | Plant response rating, Itchgrass [11, 23]: 100 | Plant response rating, Johnsongrass [12, 18]: 70 | Plant response rating, Johnsongrass [12, 19]: 70 | Plant response rating, Johnsongrass [12, 20]: 70 | Plant response rating, Johnsongrass [12, 21]: 75 | Plant response rating, Johnsongrass [12, 24]: 100 | Plant response rating, Johnsongrass [12, 22]: 100 | Plant response rating, Johnsongrass [12, 23]: 100 | Plant response rating, Kochia (kochia (Kochia scoparia); [18]): 50 | Plant response rating, Kochia (kochia (Kochia scoparia); [19]): 60 | Plant response rating, Kochia (kochia (Kochia scoparia); [20]): 70 | Plant response rating, Kochia (kochia (Kochia scoparia); [21]): 75 | Plant response rating, Kochia (kochia (Kochia scoparia); [24]): 80 | Plant response rating, Kochia (kochia (Kochia scoparia); [22]): 100 | Plant response rating, Kochia (kochia (Kochia scoparia); [23]): 100 | Plant response rating, Mallow [13, 18]: 50 | Plant response rating, Mallow [13, 19]: 60 | Plant response rating, Mallow [13, 20]: 70 | Plant response rating, Mallow [13, 21]: 70 | Plant response rating, Mallow [13, 24]: 50 | Plant response rating, Mallow [13, 22]: 80 | Plant response rating, Mallow [13, 23]: 98 | Plant response rating, Purslane [14, 18]: 35 | Plant response rating, Purslane [14, 19]: 50 | Plant response rating, Purslane [14, 20]: 50 | Plant response rating, Purslane [14, 21]: 50 | Plant response rating, Purslane [14, 24]: 95 | Plant response rating, Purslane [14, 22]: 100 | Plant response rating, Purslane [14, 23]: 100 | Plant response rating, Signalgrass [15, 18]: 50 | Plant response rating, Signalgrass [15, 19]: 75 | Plant response rating, Signalgrass [15, 20]: 75 | Plant response rating, Signalgrass [15, 21]: 95 | Plant response rating, Signalgrass [15, 22]: 95 | Plant response rating, Signalgrass [15, 23]: 100 | Plant response rating, Sowthistle ([16]; 31 g ai/ha, scale 0 to 100): 90 | Plant response rating, Sowthistle [16, 25]: 90 | Plant response rating, Sowthistle [16, 26]: 95 | Plant response rating, Sowthistle [16, 27]: 98 | Plant response rating, Spanishneedles [17, 18]: 60 | Plant response rating, Spanishneedles [17, 19]: 65 | Plant response rating, Spanishneedles [17, 20]: 70 | Plant response rating, Spanishneedles [17, 21]: 70 | Plant response rating, Spanishneedles [17, 22]: 100 | Plant response rating, Spanishneedles [17, 23]: 100
